Patent US11629331B2, “Method of differentiation of human induced pluripotent stem cell to dermal papilla precursor cell and use thereof” (SEOUL NATIONAL UNIVERSITY R & DB FOUNDATION, priority 2017, dated 2023)

Tested on: neural crest stem cells
Test: Flow cytometry (SDC1, CD133) of differentiation of neural crest stem cells into dermal papilla precursor cells
Format: cell-based, human
Settings: CHIR-99021 at 0.1 μM, 1 μM and 10 μM with bFGF and BMP4; after about 2 weeks
Description: To develop a dermal papilla precursor cell medium composition for inducing differentiation of dermal papilla precursor cells from neural crest stem cells, the possibility of differentiation into dermal papilla precursor cells was examined by treatment with several factors alone known as vital materials for dermal papilla cell differentiation or a combination thereof. To confirm differentiation into dermal papilla precursor cells, mouse anti-human SDC1 and CD133/2 antibodies were stained using PBS supplemented with 2% FBS, and then the stained cells were analyzed using a flow cytometer (BD Biosciences). A DMEM/[…]) (Reference 1) (Thermo Fisher, catalog no. […] To determine the role of a GSK-3 inhibitor as a WNT signal activator in the dermal papilla precursor cell medium composition for inducing differentiation of dermal papilla precursor cells from neural crest stem cells, the possibility of differentiation into dermal papilla precursor cells was examined by treatment with not only 6-bromoindirubin-3'-oxime (BIO) but also CHIR-99021 at 0.1 μM, 1 μM, and 10 μM. To confirm the possibility of differentiation into dermal papilla precursor cells, mouse anti-human SDC1 and CD133/2 antibodies were stained using PBS supplemented with 2% FBS, and then the stained cells were analyzed using a flow cytometer (BD Biosciences). A DMEM/[…]) (Reference 1) (Thermo Fisher, catalog no. […]

Q: How did the “differentiation efficiency into dermal papilla precursor cells (SDC1, CD133 flow cytometry)” value turn out when `Cc1c[nH]c(-c2cnc(NCCNc3ccc(C#N)cn3)nc2-c2ccc(Cl)cc2Cl)n1` [CHIR-99021] was run?
A: The value was “differentiation efficiency increased according to the concentration”.
